Among the data in ChEMBL document CHEMBL1150038, “Conformation of the CYP2D6 model substrate sparteine under physiological conditions” (Bioorg Med Chem Lett, 1993) are pKa values, retold here.

The data set can be described thus: pKa value was determined. The format is physicochemical.

Consider `C1CCN2C[C@@H]3C[C@@H](CN4CCCC[C@@H]34)[C@H]2C1` [SPARTEINE], for which the pKa stood at 11.4.

One may read the pKa as the negative logarithm of the acid dissociation constant. Low readings indicate a group that gives up its proton readily, high ones a group that holds its proton tightly.
